From US12064426B2, “Selective inhibitors of ROCK1 and ROCK2 protein kinases and uses thereof” (GENOSCO Inc., priority 2021, dated 2024)

Key:
[1] = target: T1, Recombinant ROCK2 (amino acids 5-554) (Homo sapiens, UniProt O75116); assay: ROCK inhibition assay, LANCE Ultra TR-FRET kinase assay (ROCK2); format: biochemical; details: 4 μM ATP, 50 nM ULight-CREBtide substrate
T1 construct: ROCK2 (amino acids 5-554); by word order, ROCK2 from SignalChem
Method: (§1) Kinase IC50 was determined through an in vitro assay based on LANCE Ultra TR-FRET (Time-Resolved Fluorescence Resonance Energy Transfer) homogeneous technologies method (Perkin Elmer). Recombinant ROCK1 (amino acids 1-477) and ROCK2 (amino acids 5-554) proteins were purchased from Carna Biosciences and SignalChem. Compound activities were measured by Envision and IC50s were calculated. The assays were performed in white LUMITRAC™ 200 96 well half-area microplates from Greiner Bio-One. The kinase reaction buffer consisted of 50 mM HEPES pH 7.5, 1 mM EGTA, 10 mM MgCl2, 2 mM DTT and 0.01% Tween-20. Kinases were incubated with 50 nM (ULight-CREBtide) substrate in the presence of 1 (ROCK1) or 4 (ROCK2) μM ATP. The kinase reaction was carried out for 1 hour before addition of a stopping buffer to a final of 10 mM EDTA and 0.6 nM of LANCE Ultra Europium anti-phospho-CREB (Ser133) antibody (PerkinElmer TRF0200) in LANCE detection buffer. All assay incubations were performed at room temperature, and the microplates were sealed with polyester film during that time. The reaction was incubated for 1 hour, and the signal was read in Envision in TR-FRET mode (excitation at 320 nm and emission at 615/665 nm).
(§2) As used herein, a way to describe potency of inhibitory activity (nM) is a value of inhibitory activity at 50% (IC50).

[2] = target: T2, Recombinant ROCK1 (amino acids 1-477) (Homo sapiens, UniProt Q13464); assay: ROCK inhibition assay, LANCE Ultra TR-FRET kinase assay (ROCK1); format: biochemical; details: 1 μM ATP, 50 nM ULight-CREBtide substrate
T2 construct: Recombinant ROCK1 (amino acids 1-477); by word order, ROCK1 from Carna Biosciences
T2 sequence (Q13464 1-477): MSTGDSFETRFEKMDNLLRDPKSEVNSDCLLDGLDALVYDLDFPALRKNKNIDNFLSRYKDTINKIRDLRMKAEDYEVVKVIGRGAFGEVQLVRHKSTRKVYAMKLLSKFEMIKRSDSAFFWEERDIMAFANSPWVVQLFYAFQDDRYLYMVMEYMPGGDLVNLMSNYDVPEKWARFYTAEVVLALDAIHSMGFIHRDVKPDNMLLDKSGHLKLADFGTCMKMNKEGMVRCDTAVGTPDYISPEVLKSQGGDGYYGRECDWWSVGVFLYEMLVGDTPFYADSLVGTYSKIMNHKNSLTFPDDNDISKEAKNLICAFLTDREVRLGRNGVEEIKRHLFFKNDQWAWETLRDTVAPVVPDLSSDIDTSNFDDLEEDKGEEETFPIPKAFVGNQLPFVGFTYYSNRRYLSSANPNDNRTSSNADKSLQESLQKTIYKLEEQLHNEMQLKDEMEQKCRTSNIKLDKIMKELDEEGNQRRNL
Method: as §1, §2

T1 sequence (O75116 5-554): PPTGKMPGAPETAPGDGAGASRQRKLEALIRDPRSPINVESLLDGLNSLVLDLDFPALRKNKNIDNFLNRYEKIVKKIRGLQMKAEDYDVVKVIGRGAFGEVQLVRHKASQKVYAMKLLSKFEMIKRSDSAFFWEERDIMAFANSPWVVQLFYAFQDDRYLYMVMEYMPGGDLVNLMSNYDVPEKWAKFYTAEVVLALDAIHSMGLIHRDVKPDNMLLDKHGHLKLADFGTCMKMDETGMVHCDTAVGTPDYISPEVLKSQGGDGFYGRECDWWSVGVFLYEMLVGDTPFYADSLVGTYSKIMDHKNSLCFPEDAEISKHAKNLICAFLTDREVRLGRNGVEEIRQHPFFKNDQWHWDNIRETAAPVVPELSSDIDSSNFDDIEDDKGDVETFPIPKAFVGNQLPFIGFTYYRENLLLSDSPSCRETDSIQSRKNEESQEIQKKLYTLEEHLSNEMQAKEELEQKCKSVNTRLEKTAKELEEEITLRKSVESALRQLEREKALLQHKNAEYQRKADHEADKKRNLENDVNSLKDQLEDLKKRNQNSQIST

SMILES	IC50 [1]	IC50 [2]
COc1cccc(CN2CCc3cc(-c4cn[nH]c4)ccc3C2=O)c1 [Compound 1, 2-(3-methoxybenzyl)-6-(1H-pyrazol-4-yl)-3,4-dihydroisoquinolin-1(2H)-one]	100 to 500 nM	> 501 nM
COc1cccc(Cn2ccc3cc(-c4cn[nH]c4)ccc3c2=O)c1 [Compound 2, 2-(3-methoxybenzyl)-6-(1H-pyrazol-4-yl)isoquinolin-1(2H)-one]	10 to 100 nM	101 to 500 nM
O=c1c2ccc(-c3cn[nH]c3)cc2ccn1Cc1cccc(O)c1 [Compound 3, 2-(3-hydroxybenzyl)-6-(1H-pyrazol-4-yl)isoquinolin-1(2H)-one]	10 to 100 nM	101 to 500 nM
Cc1n[nH]cc1-c1ccc2c(=O)n(Cc3cccc(O)c3)ccc2c1 [Compound 5]	10 to 100 nM	101 to 500 nM
COc1cccc(Cn2ccc3cc(-c4c[nH]nc4C(F)(F)F)ccc3c2=O)c1 [Compound 6]	< 10 nM	11 to 100 nM
COc1cccc(Cn2ccc3cc(-c4conc4C)ccc3c2=O)c1 [Compound 9]	< 10 nM	11 to 100 nM
COc1cccc(Cn2ccc3cc(-c4ccnn4C)ccc3c2=O)c1 [Compound 11]	< 10 nM	11 to 100 nM
COc1cccc(Cn2ccc3cc(-c4c[nH]nc4C(F)F)ccc3c2=O)c1 [Compound 13]	< 10 nM	11 to 100 nM
COc1cccc(C(C)n2ccc3cc(-c4c[nH]nc4Cl)ccc3c2=O)c1 (stereo not drawn) [Compound 19]	< 10 nM	< 10 nM
O=c1c2ccc(-c3c[nH]nc3Cl)cc2ccn1Cc1cccc(O)c1 [Compound 20]	< 10 nM	< 10 nM
O=c1c2ccc(-c3ccncc3)cc2ccn1Cc1cccc(O)c1 [Compound 23]	100 to 500 nM	> 501 nM
O=C(Nc1ccccc1)c1cccc(Cn2ccc3cc(-c4cn[nH]c4)ccc3c2=O)c1 [Compound 29]	100 to 500 nM	> 501 nM
Cc1n[nH]cc1-c1ccc2c(=O)n(Cc3cccc(C(=O)Nc4ccn(C)n4)c3)ccc2c1 [Compound 32]	< 10 nM	101 to 500 nM

Now from value to molecule:

IC50 [1]	IC50 [2]	SMILES
< 10 nM	11 to 100 nM	COc1cccc(Cn2ccc3cc(-c4c[nH]nc4C)ccc3c2=O)c1 [Compound 4]
10 to 100 nM	101 to 500 nM	O=c1c2ccc(-c3c[nH]nc3C(F)(F)F)cc2ccn1Cc1cccc(O)c1 [Compound 7]
10 to 100 nM	101 to 500 nM	CC(c1cccc(O)c1)n1ccc2cc(-c3c[nH]nc3C(F)(F)F)ccc2c1=O (stereo not drawn) [Compound 8]
< 10 nM	11 to 100 nM	O=c1c2ccc(-c3c[nH]nc3C(F)F)cc2ccn1Cc1cccc(O)c1 [Compound 14]
< 10 nM	11 to 100 nM	CC(c1cccc(O)c1)n1ccc2cc(-c3c[nH]nc3C(F)F)ccc2c1=O (stereo not drawn) [Compound 15]
< 10 nM	11 to 100 nM	COc1cc(F)cc(Cn2ccc3cc(-c4c[nH]nc4Cl)ccc3c2=O)c1 [Compound 17]
< 10 nM	11 to 100 nM	COc1cccc(Cn2ccc3cc(-c4c[nH]nc4Cl)ccc3c2=O)c1 [Compound 18]
< 10 nM	11 to 100 nM	CC(c1cccc(O)c1)n1ccc2cc(-c3c[nH]nc3Cl)ccc2c1=O (stereo not drawn) [Compound 21]
10 to 100 nM	101 to 500 nM	COc1cccc(C(C)n2ccc3cc(-c4ccnc(N)c4)ccc3c2=O)c1 (stereo not drawn) [Compound 26]
< 10 nM	11 to 100 nM	O=C(NCCc1ccccn1)c1cccc(Cn2ccc3cc(-c4cn[nH]c4)ccc3c2=O)c1 [Compound 27, 3-((1-oxo-6-(1H-pyrazol-4-yl)isoquinolin-2(1H)-yl)methyl)-N-(2-(pyridin-2-yl)ethyl)benzamide]
10 to 100 nM	101 to 500 nM	CC(C)NC(=O)c1cccc(Cn2ccc3cc(-c4cn[nH]c4)ccc3c2=O)c1 [Compound 28]
100 to 500 nM	> 501 nM	O=C(NCc1ccccc1)c1cccc(Cn2ccc3cc(-c4cn[nH]c4)ccc3c2=O)c1 [Compound 30]
	101 to 500 nM	C[C@H](c1cccc(C(=O)Nc2ccon2)c1)n1cnc2cc(-c3cn[nH]c3C(F)(F)F)ccc2c1=O [Compound 448]
